The values below come from PMC5677544 (Analytical chemistry, 2017).

Test in all cases: ESI-MS titration
Format in all cases: binding

Test [1] addresses T1, β-2-microglobulin (β2m) (Homo sapiens, UniProt P61769).
Test [2] addresses T1, β-2-microglobulin (β2m). This is another data set of the same source.
Test [3] deals with T1, β-2-microglobulin (β2m). The source holds these as a separate data set.

Read-outs that look alike come from different tables or passages of the source.

T1 sequence (P61769 21-119): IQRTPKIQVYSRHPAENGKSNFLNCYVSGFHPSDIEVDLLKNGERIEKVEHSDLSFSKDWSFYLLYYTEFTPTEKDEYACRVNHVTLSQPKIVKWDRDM

`CO[C@H]1/C=C/O[C@@]2(C)Oc3c(C)c(O)c4c(O)c(cc(O)c4c3C2=O)NC(=O)/C(C)=C\C=C\[C@H](C)[C@H](O)[C@@H](C)[C@@H](O)[C@@H](C)[C@H](OC(C)=O)[C@@H]1C` [rifamycin SV] displayed a Kd at β-2-microglobulin (β2m) [1] of 250 ± 25 µM. `Cc1ccc(C(=O)Nc2ccc(S(=O)(=O)O)c3cc(S(=O)(=O)O)cc(S(=O)(=O)O)c23)cc1NC(=O)c1cccc(NC(=O)Nc2cccc(C(=O)Nc3cc(C(=O)Nc4ccc(S(=O)(=O)O)c5cc(S(=O)(=O)O)cc(S(=O)(=O)O)c45)ccc3C)c2)c1` [suramin]: the Kd at β-2-microglobulin (β2m) [2] was found to be 40 ± 2 µM.

`C[C@H]1c2cccc(O)c2C(=O)C2=C(O)[C@]3(O)C(=O)C(C(N)=O)=C(O)[C@@H](N(C)C)[C@@H]3[C@@H](O)[C@@H]21` [doxycycline]: the dissociation constant (Kd) at β-2-microglobulin (β2m) [3] was found to be 200 ± 20 µM.
